Assay results as given in patent US11655253B2, “CBP/catenin signaling pathway inhibitors and uses thereof” (3+2 Pharma, LLC, priority 2020, dated 2023).
Entries after “also recorded” stand apart in the source; their conditions may differ.

What was measured:
β-catenin binding to CBP = target: T1, β-catenin binding to CBP (Homo sapiens, UniProt Q92793); experiment: Co-immunoprecipitation assay in SW480 cells, CBP IP; type: cell-based; conditions: 10 μM
T1 construct: endogenous in cells; host or cells: SW480 colorectal cancer cells
T1 sequence (Q92793 whole entry): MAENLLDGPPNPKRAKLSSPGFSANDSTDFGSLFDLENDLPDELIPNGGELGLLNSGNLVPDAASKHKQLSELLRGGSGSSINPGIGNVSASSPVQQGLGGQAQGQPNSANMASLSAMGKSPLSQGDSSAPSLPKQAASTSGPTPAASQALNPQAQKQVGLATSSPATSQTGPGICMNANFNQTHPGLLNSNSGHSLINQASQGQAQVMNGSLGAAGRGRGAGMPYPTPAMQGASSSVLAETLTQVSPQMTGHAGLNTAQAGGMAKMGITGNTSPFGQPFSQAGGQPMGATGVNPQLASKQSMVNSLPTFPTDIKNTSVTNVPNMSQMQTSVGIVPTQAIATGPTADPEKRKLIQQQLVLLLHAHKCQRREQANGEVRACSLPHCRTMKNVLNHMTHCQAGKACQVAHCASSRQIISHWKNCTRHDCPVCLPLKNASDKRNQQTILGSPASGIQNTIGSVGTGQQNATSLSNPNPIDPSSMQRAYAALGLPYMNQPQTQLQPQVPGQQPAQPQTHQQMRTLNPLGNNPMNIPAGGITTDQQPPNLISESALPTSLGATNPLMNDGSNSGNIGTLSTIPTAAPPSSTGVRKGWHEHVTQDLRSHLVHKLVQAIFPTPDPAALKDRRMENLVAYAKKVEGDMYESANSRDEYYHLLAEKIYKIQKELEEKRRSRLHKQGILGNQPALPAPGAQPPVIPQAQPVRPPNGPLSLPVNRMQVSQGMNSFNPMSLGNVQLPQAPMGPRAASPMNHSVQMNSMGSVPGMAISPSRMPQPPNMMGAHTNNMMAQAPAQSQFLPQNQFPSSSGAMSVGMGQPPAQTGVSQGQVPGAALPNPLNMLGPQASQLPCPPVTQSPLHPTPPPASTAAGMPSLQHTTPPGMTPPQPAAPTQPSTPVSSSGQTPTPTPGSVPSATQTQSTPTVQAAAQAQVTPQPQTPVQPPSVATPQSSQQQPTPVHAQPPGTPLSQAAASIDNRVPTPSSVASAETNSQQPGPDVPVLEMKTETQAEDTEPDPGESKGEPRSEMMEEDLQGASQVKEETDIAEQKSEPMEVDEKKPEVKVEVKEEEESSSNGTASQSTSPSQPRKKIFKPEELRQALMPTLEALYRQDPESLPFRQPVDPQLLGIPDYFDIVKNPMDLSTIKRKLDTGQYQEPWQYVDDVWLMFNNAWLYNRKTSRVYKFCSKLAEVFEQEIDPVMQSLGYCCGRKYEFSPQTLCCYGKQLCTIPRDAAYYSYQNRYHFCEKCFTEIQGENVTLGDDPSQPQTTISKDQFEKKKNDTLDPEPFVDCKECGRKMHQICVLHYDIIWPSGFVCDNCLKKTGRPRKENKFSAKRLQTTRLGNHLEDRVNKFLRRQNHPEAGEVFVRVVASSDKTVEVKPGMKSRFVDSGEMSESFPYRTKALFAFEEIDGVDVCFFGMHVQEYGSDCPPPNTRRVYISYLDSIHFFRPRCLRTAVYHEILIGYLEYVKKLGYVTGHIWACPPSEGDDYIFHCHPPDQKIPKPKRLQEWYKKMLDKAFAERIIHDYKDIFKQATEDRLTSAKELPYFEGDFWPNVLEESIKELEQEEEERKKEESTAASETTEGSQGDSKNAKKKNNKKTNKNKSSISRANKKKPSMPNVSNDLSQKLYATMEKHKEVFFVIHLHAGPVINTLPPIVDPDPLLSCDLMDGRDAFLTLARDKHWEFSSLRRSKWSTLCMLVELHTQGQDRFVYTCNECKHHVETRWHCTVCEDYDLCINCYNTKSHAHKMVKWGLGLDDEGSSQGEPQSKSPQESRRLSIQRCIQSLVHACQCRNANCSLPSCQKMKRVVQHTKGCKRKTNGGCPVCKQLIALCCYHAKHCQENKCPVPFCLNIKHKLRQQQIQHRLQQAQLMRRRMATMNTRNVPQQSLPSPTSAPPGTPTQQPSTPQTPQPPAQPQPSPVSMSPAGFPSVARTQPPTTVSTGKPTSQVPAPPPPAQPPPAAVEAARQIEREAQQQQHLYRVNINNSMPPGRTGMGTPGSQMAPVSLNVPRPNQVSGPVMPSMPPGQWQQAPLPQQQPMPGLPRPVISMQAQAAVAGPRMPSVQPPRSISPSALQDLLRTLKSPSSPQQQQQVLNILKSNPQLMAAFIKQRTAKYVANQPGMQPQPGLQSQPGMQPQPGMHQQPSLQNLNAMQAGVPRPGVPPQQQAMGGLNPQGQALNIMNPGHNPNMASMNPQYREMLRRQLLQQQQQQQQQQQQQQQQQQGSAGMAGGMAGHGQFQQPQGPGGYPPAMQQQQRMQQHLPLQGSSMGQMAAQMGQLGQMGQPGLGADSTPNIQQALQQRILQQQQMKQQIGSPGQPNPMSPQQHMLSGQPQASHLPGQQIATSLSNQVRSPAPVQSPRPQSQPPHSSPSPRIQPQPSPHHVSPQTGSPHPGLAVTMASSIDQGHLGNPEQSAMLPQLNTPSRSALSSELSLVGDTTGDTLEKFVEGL
Description: (§1) FIG. 4A and FIG. 4B, show, according to further non-limiting aspects of the present invention, a co-immunoprecipitation assay that was performed in SW480 cells as previously described (Emami K. et al. PNAS USA, 2004 Aug. 24; 101 (34): 12682-7) to further confirm that the positive control compound ICG-001 and [3+2]-117 selectively disrupt β-catenin binding to CBP (FIG. 4A), while enhancing the binding of β-catenin to p300 (FIG. 4B). Immunoprecipitation of β-catenin with CBP was inhibited by ICG-001 at 10 μM ([…]) and by [3+2]-117 at 500 nM. […] Quantification of the immunoblotting data based upon pixelation is shown below the immunoblots.

[1] = tested on: β-catenin binding to p300; experiment: Co-immunoprecipitation assay in SW480 cells, p300 IP; type: cell-based
Description: as §1

[2] = tested on: patients with HCV cirrhosis; conditions: intravenous, cited from earlier work
[3] = tested on: memory CD4+ T-cells in SIVmac251-infected RMs; conditions: ART-suppressed SIVmac251-infected RMs; cited from earlier work
[4] = tested on: STAM mouse model of NASH-HCC; experiment: STAM mouse model of NASH-HCC; type: in vivo, mice; conditions: after 4 weeks of treatment, vehicle 5 out of 8
Description: In the vehicle control treated group only 5 out of 8 mice survived, whereas in the 3+2]-120A at 100 mg/kg/day (A-low) and 400 mg/kg/day (A-high), 7 out of 8 and 8 out of 8 mice survived respectively.

[5] = tested on: bleomycin induced model of IPF in mice; experiment: Bleomycin induced mouse model of idiopathic pulmonary fibrosis; type: in vivo; conditions: for overall survival and Ashcroft scoring versus historical control data for pirfenidone and nintedanib: from day 7 after bleomycin for 2 weeks; for extracellular collagen deposition (Masson's trichrome blue staining) compared to bleomycin saline treated historical control / survival: all treatment groups; for survival: to day 21; for Ashcroft score / Left lung weight / Post-caval lobe weight / Body weight: n = 3, mean +/− SD; for Body weight: day of sacrifice
Excerpt: Bleomycin induced model of IPF.
Results. […] FIGS. 8A-8E are as follows: historical bleomycin saline treated control (8A, “ID:103”); [3+2]-120A low dose (8B, “ID:102”); [3+2]-120A high dose (8C, “ID:201”); [[3+2]-120B low dose (8D, ID:302”); and [3+2]-120B high dose (8E, ID:401”).

[6] = tested on: NC/Nga mice atopic dermatitis model; experiment: NC/Nga mouse model of atopic dermatitis; type: in vivo; conditions: for dermatitis scores compared to vehicle control / TEWL (transepidermal water loss) compared to vehicle control: topical once daily Day 0-13; for TEWL (transepidermal water loss) compared to vehicle control: day 14; for mean body weight versus Vehicle group: any day during the treatment period
Description: NC/Nga mice (female) were obtained from CHARLES RIVER LABORATORIES JAPAN INC. Mice were randomized into […] of 8 mice on Day 0 based on their body weight and dermatitis score. Eight NC/Nga mice were topically administered test compound-containing [3+2]-121A (compound 34) ointment (in a volume of 100 mg) once daily from Day 0 to Day 13, or vehicle control (hydrophilic petrolatum).
Representative test substance [3+2]-121A was formulated in hydrophilic petrolatum at low (100 uM) and high (500 uM) dosages (referred to in the study as [3+2]-121A and [3+2]-121B, respectively). 7-week-old female NC/Nga mice were used. The first induction of atopic dermatitis was performed three weeks before compound administration, for which the mice were shaved of hair on their backs and behind the ears with a clipper and a shaver. Then the mice had their hair removed completely with a depilatory agent (Epilat™, Kracie Home Products, Ltd.) before 100 mg of Biostir AD® ointment was applied to the shaved dorsal skin and both surfaces of each ear evenly with a plastic spoon. The second induction of atopic dermatitis was performed subsequently. The mice were shaved of hair on their backs and behind the ears, then 150 μl of 4% sodium lauryl sulfate solution was applied to the back and behind the ears with a plastic spoon. After this, it was dried with a hair dryer (cold air) and then left to dry naturally for about 1 to 2 hours. 100 mg of Biostir AD® ointment was applied to the shaved dorsal skin and both surfaces of each ear evenly with a plastic spoon. This procedure was repeated twice a week for three weeks. Twenty-four atopic dermatitis model mice were sorted into 3 groups of 8 mice based on their body weight and dermatitis severity score on the morning at Day 0. Vehicle control (hydrophilic petrolatum), [3+2]-121A or [3+2]-121B was administered topically in a volume of 100 mg once daily from Day 0 to Day 13. Body weight and food consumption were measured once a week at Day 0, 7 and 14. The severity of dermatitis was evaluated at Day 0, 3, 7, 10 and 14. The development of 1) erythema/hemorrhage, 2) scarring/dryness, 3) edema, 4) excoriation/erosion were scored as 0 (none), 1 (mild), 2 (moderate) and 3 (severe). The sum of the individual scores was taken as the dermatitis score. The TEWL was evaluated at Day 0 and at Day 14 after administration. Histological analyses were performed on lower neck dorsal skin and auricle that were fixed in 10% neutral formalin, embedded in paraffin and sectioned at 3-4 μm sections and stained with hematoxylin-eosin using Carrazzi's hematoxylin solution. For analysis of the skin area, bright field images of HE-stained sections were randomly captured using a digital camera (DS-Fi3; Nikon) at 2 and 4-fold magnification. Statistical analyses were performed using Prism Software 6 (GraphPad Software, USA). Statistical analyses were performed using Dunnett's Comparison Test. Comparisons were made between the following groups; Group 1 (Vehicle) vs. Group 2 ([3+2]-121A) and Group 3 ([3+2]-121B). P values <0.05 were considered statistically significant. Results were expressed as mean±SD.

[7] = both dosage groups (100 and 400 mg/kg/day p.o.)
[8] = high dosage group (400 mg/kg/day p.o.)

Question: What does the source list for `O=C1[C@H](Cc2ccc(O)cc2)N2C(=O)CCN(C(=O)NCc3ccccc3)[C@H]2CN1Cc1cccc2ccccc12` [ICG-001]?
Answer: Immunoprecipitation of β-catenin with CBP (β-catenin binding to CBP): inhibited; minimal interaction between β-catenin and p300 [1]: not blocked; amount of β-catenin co-immunoprecipitated with p300 ([1]; 10 μM): slightly increases

Question: What does the source list for `C[C@H]1[C@H]2N(C(=O)CN(C)N2C(=O)NCc2ccccc2)[C@@H](Cc2ccc(OP(=O)(O)O)cc2)C(=O)N1Cc1cccc2cccnc12` [PRI-724]?
Answer: safety ([2]; 10 and 40 mg/m^2/day for 12 weeks (1 week on and 1 week off)): safe; plasma exposure of the drug ([2]; 10 and 40 mg/m^2/day for 12 weeks): dose-dependent; liver histology and Child Pugh scores ([2]; 10 and 40 mg/m^2/day for 12 weeks, in several patients): improvement; proliferation of T memory stem cells (SCM) and central memory T-cells (CM) [3]: decrease

Question: With `CS(=O)(=O)O.O=C1[C@H](Cc2ccc(O)cc2)N2C(=O)CN(Cc3cc(-c4ccccn4)no3)N(C(=O)NCc3ccccc3)[C@H]2CN1Cc1cccc2ncccc12` [[3+2]-120A] as the molecule, how does the mice survived ([4]; 100 mg/kg/day p.o. (A-low)) read?
Answer: 7 out of 8

Question: What about the mice survived ([4]; 400 mg/kg/day p.o. (A-high)) of the same molecule?
Answer: 8 out of 8

Question: And the “overall survival and Ashcroft scoring versus historical control data for pirfenidone and nintedanib” value ([5]; 100 mg/kg/day p.o.)?
Answer: compared favorably

Question: What about the “overall survival and Ashcroft scoring versus historical control data for pirfenidone and nintedanib” value ([5]; 400 mg/kg/day p.o.) of the same molecule?
Answer: compared favorably

Question: And the “extracellular collagen deposition (Masson's trichrome blue staining) compared to bleomycin saline treated historical control” value [5]?
Answer: significant reduction

Question: And the survival [5]?
Answer: all mice survived

Question: And the Ashcroft scores [5, 7]?
Answer: significant decrease

Question: And the lung weights [5, 7]?
Answer: significant decrease

Question: And the weight gain [5, 7]?
Answer: significant increase

Question: And the Ashcroft score ([5]; high dose (400 mg/kg/day p.o.))?
Answer: 2.5 +/− 2.0

Question: What about the Left lung weight ([5]; high dose (400 mg/kg/day p.o.)) of the same molecule?
Answer: 66 ± 33 mg

Question: What about the Post-caval lobe weight ([5]; high dose (400 mg/kg/day p.o.)) of the same molecule?
Answer: 25 ± 18 mg

Question: And the Body weight ([5]; high dose (400 mg/kg/day p.o.))?
Answer: 16.9 ± 3.8 g

Question: What about the Ashcroft score ([5]; low dose p.o.) of the same molecule?
Answer: 2.2 +/− 1.7

Question: And the Left lung weight ([5]; low dose p.o.)?
Answer: 65 ± 19 mg

Question: What about the Post-caval lobe weight ([5]; low dose p.o.) of the same molecule?
Answer: 21 ± 9 mg

Question: What about the Body weight ([5]; low dose p.o.) of the same molecule?
Answer: 18.2 ± 0.7 g

Question: Which “overall survival and Ashcroft scoring versus historical control data for pirfenidone and nintedanib” value ([5]; 400 mg/kg/day p.o.) does the source give for `CCOC(=O)CNC(=O)CNC(=O)Oc1ccc(C[C@H]2C(=O)N(Cc3cccc4ncccc34)C[C@H]3N2C(=O)CN(Cc2cc(-c4ccccn4)no2)N3C(=O)NCc2ccccc2)cc1` [[3+2]-120B, ethyl 2-(2-((4-(((6S,9aS)-1-(benzylcarbamoyl)-4,7-dioxo-2-((3-(pyridin-2-yl)isoxazol-5-yl)methyl)-8-(quinolin-5-ylmethyl)octahydro-1H-pyrazino[2,1-c][1,2,4]triazin-6-yl)methyl)phenoxy)carbonylamino)acetamido)acetate] here?
Answer: compared favorably

Question: And the “extracellular collagen deposition (Masson's trichrome blue staining) compared to bleomycin saline treated historical control” value [5]?
Answer: significant reduction

Question: And the survival [5]?
Answer: all mice survived

Question: And the Ashcroft scores [5, 8]?
Answer: significant decrease

Question: What about the lung weights [5, 8] of the same molecule?
Answer: significant decrease

Question: And the weight gain [5, 8]?
Answer: significant increase

Question: And the Ashcroft score ([5]; high dose (400 mg/kg/day p.o.))?
Answer: 2.1 +/− 0.7

Question: What about the Left lung weight ([5]; high dose (400 mg/kg/day p.o.)) of the same molecule?
Answer: 65 ± 13 mg

Question: And the Post-caval lobe weight ([5]; high dose (400 mg/kg/day p.o.))?
Answer: 21 ± 6 mg

Question: And the Body weight ([5]; high dose (400 mg/kg/day p.o.))?
Answer: 19.5 ± 1.6 g

Question: And the Ashcroft score ([5]; low dose p.o.)?
Answer: 3.9 +/− 1.4

Question: And the Left lung weight ([5]; low dose p.o.)?
Answer: 77 ± 15 mg

Question: What about the Post-caval lobe weight ([5]; low dose p.o.) of the same molecule?
Answer: 39 ± 17 mg

Question: What about the Body weight ([5]; low dose p.o.) of the same molecule?
Answer: 15.1 ± 3.8 g

Question: Which “dermatitis scores compared to vehicle control” value ([6]; high (500 uM) ointment) does the source give for `CCCCCCCCCCCC(=O)Oc1ccc(C[C@H]2C(=O)N(Cc3cccc4ccccc34)C[C@H]3N2C(=O)CN(Cc2cc(-c4ccccc4)no2)N3C(=O)NCc2ccccc2)cc1` [[3+2]-121A] here?
Answer: significantly decreased

Question: What about the “TEWL (transepidermal water loss) compared to vehicle control” value ([6]; high (500 uM) ointment) of the same molecule?
Answer: significantly decreased

Question: And the “food consumption per mouse versus Vehicle group” value ([6]; low (100 uM))?
Answer: no significant differences

Question: And the “inflammation and inflammatory cell influx (histological analysis)” value ([6]; low (100 uM))?
Answer: significant reduction

Question: And the “dermatitis scores compared to vehicle control” value ([6]; low (100 uM) ointment)?
Answer: significantly decreased

Question: What about the “TEWL (transepidermal water loss) compared to vehicle control” value ([6]; low (100 uM) ointment) of the same molecule?
Answer: significantly decreased; also recorded: significant decrease

Question: What about the “dermatitis severity score on the back compared with Vehicle group” value ([6]; low (100 uM), Days 10 and 14) of the same molecule?
Answer: significant decrease

Question: And the “mean body weight versus Vehicle group” value ([6]; low (100 uM))?
Answer: no significant differences

Question: What about the “total dermatitis severity score compared with Vehicle control group” value ([6]; low (100 uM), primarily on the back, Days 10 and 14) of the same molecule?
Answer: significant decrease

Question: What does the source list for `CCCCCCCCCCCC(=O)Oc1ccc(C[C@H]2C(=O)N(Cc3cccc4ccccc34)C[C@H]3N2C(=O)CN(Cc2cc(-c4ccccc4)no2)N3C(=O)NCc2ccccc2)cc1` [[3+2]-121B]?
Answer: food consumption per mouse versus Vehicle group ([6]; high (500 uM)): no significant differences; inflammation and inflammatory cell influx (histological analysis) ([6]; high (500 uM)): significant reduction; TEWL (transepidermal water loss) compared to vehicle control ([6]; high (500 uM) ointment, listed as 121B): significant decrease; mean body weight versus Vehicle group ([6]; high (500 uM)): no significant differences
